# Patent US6605604B1, “Carboxylic and hydroxamic acid compounds inhibiting metalloproteases, method for preparing same and pharmaceutical compositions containing them” (Les Laboratoires Servier, priority 1998, dated 2003)
# pIC50: −log10 of the molar value.
# Experiments:
# B16F10 melanoma = conditions: BDF1 mice, B16F10 cells i.v. on day 1; compound i.v. at 100 mg/kg from day 0 to day 3; metastases counted on day 11
# Method: Inhibition of the Formation of Metastases in the Mouse
# The anti-tumour activity of the compounds of the invention was studied in the model of B16F10 melanoma grafted by the i.v. route. […] The parameter measured is thus the number of pulmonary metastases.
# B16F1O tumour cells are injected by the i.v. route into BDF1 mice on day 1 (1 10^5 cells per mouse). The compounds are administered by the i.v. route at 100 mg/kg from day 0 to day 3 (7 animals per experimental group). On day 11, the animals are sacrificed and the pulmonary metastases are counted. The results are expressed as % inhibition compared with the control animals.
# ovarian cancers = conditions: Becket et al., DDT 1996, 1, 16; cited from earlier work
# [1] = system: rabbit cartilage collagen matrix degradation induced by IL-1β; conditions: read-out: IC50, collagen degradation (OH-proline release), IL-1β 10 ng/ml and plasmin 0.1 U/ml, 2 days
# Method: The compounds of the invention were studied using a rabbit cartilage collagen matrix degradation model with degradation being induced by IL-1β. The tissue is placed in contact with IL -1β (10 ng/ml) and plasmin (0.1 U/ml) for 2 days. The fraction of OH-proline salted out by the tissue is evaluated by colorimetric measurement (GRANT R. A. Estimation of OH-proline by the autoanalyzer, J. Clin. Path. 1964, 17 685). The compounds of the invention were studied after the addition of various concentrations to the culture medium during the two days of the test.
SMILES,"inhibition of the formation of pulmonary metastases, % inhibition compared with the control animals (B16F10 melanoma)",anti-tumour activity in clinical use (ovarian cancers),pIC50 [1]
"O=C(O)[C@H]1[C@H](Cn2nnc3ccccc3c2=O)CC[C@@H]1Sc1ccc(-c2ccc(Cl)cc2)cc1 (mixture of isomers) [Example 49, (1R,2S,5R)- and (1S,2R,5S)-2-[(4′-chloro-4-biphenyl)sulphanyl]-5-[(4-oxo-3,4-dihydro-1,2,3-benzotriazin-3-yl)methyl]-1-cyclopentanecarboxylic acid]",73%,,
CNC(=O)[C@H](Cc1ccccc1)NC(=O)[C@H](CC(C)C)[C@H](CSc1cccs1)C(=O)NO [BB94],,active in ovarian cancers,
"O=C(NO)C(CCn1nnc2ccccc2c1=O)CSCCc1ccc(-c2ccc(Cl)cc2)cc1 (stereo not shown) [Example 93, 2-{[2-(4′-Chloro-4-biphenyl)ethyl]sulphanylmethyl}-N-hydroxy-4-(4-oxo-3,4-dihydro-1,2,3-benzotriazin-3-yl)butyramide]",75%,,5.72
